One data set relates to PC-3. Briefly: Cytotoxicity assay, PC-3 (prostate). The note with it: Homo sapiens, PC-3, read-out: Cytotoxicity IC50, PC-3.
The next data set concerns BxPC-3. Briefly: Cytotoxicity assay, BxPC-3 (pancreatic). The note with it: Homo sapiens, BXPC-3, read-out: Cytotoxicity IC50, Bx-PC3.
For data set [1] the following is noted: cited from earlier work.
Another data set concerns MIA PaCa-2. Briefly: Cytotoxicity assay, MIA PaCa-2 (pancreatic). To be noted: Homo sapiens, MIA PaCa-2, read-out: Cytotoxicity IC50, MIA PaCa-2.
For another data set, the system named is LS-174T. Briefly: Cytotoxicity assay, LS-174T (colon). The note with it: Homo sapiens, LS174T, read-out: Cytotoxicity IC50, LS-174T.

Molecules are shown by their SMILES.

Method for BxPC-3: (§1) The growth inhibitory effects of conjugates 5 and 8 were examined through a series of cytoxcicity assays against a variety of cancer cell types of human origin. The cell types tested were PC-3 (prostate), LS-174T (colon), MIA PaCa-2 (pancreatic) and BxPC-3 (pancreatic).
(§2) The surviving cell populations were counted on the fourth day after treatment (96 hour post-treatment). The viable cells were then counted and the numbers of treated cells were normalized against the untreated controls (taken as 100%).
(§3) Tumor cells (as indicated) were maintained as monolayers in 75-cm^2 tissue culture flasks using their respective cell culture medium containing 10% fetal bovine serum and 2 mM L-glutamine. Incubation was at 37° C. under a humidified 5% CO2: air atmosphere (standard conditions) for five days. The cells were harvested when in mid-log growth and their concentration was determined using a particle counter (Beckman Coulter, Inc, Fullerton, Calif.). An aliquot of the cell suspension was diluted in culture medium for delivery to a 24-well tissue culture plate at a range of 10,000 to 30,000 per 1 mL per well. […] Following a 96-h incubation under standard conditions from the initial treatment, the viable cells were counted and the numbers were normalized to the percent of untreated controls. […]
Method for LS-174T: as §1, §2, §3
Method for MIA PaCa-2: as §1, §2, §3

Take `COc1cc(/C=C/C(=O)CC(=O)/C=C/c2ccc(O)c(OC)c2)ccc1O` [Curcumin, (E,E)-1,7-bis(4-hydroxy-3-methoxyphenyl)-1,6-heptadiene-3,5-dione]: the IC50 in the data set on PC-3 was 12 ± 1.35 µM; with BxPC-3, 2 ± 0.3 µM; with MIA PaCa-2, 9 ± 2.5 µM; in the data set on LS-174T, 6.5 ± 1.4 µM. Also, in data set [1], the “solubility in water and other aqueous solutions” value was “insoluble”.

As a reminder, the IC50 is the concentration needed to halve the response being measured.
